From US6855728B2, “Small-molecule modulators of hepatocyte growth factor / scatter factor activities” (North Shore-Long Island Jewish Health System, priority 2001, dated 2005)

Columns and labels:
[1] = test system: Endothelial cells (HUVECs); test: Endothelial cell (HUVEC) proliferation assay, 3H thymidine incorporation, compound without added growth factor; format: cell-based, human; settings: for Stimulation at 6-12 micrograms/ml Without HGF/SF / activation at 5 µg/mL / activation at 10 µg/mL / Stimulation at 5 microg/ml / Stimulation at 10 microg/ml: stimulation of endothelial cell proliferation; for activation at 5 µg/mL / activation at 10 µg/mL: 24 h; for activation at 5 µg/mL / Stimulation/Inhibition at 5 microg/ml (result in words) / Stimulation at 5 microg/ml: 5 microg/ml
Procedure: Cell proliferation assays Endothelial cells (HUVECs) were seeded in 48 well plates at a density of 10,000 to 20,000 cells per well in the normal growth medium (EGM-2-Clonetics) containing 2% fetal bovine serum, FGF, VEGF, IGF, ascorbic acid, EGF, GA, heparin and hydrocortisone. The cells were grown normally in the growth medium for 24 hr at 37 degrees C. and 5% CO2. The cells were then rinsed with RPMI-1% BSA and starved for 1-2 hrs. The stock solutions of all the compounds were made at a concentration of 10 mg/ml in DMSO and diluted in RPMI-1% BSA at a final concentrations of 1 to 12 microgram/ml. The cells were then washed and treated with the compounds and incubated for another 24 hr at 37 degrees C. Then ^3H thymidine (0.5 microgram/ml in RPMI-BSA) was added to the cells and incubated at 37 degrees C. for 4 to 5 hours. The unincorporated thymidine was removed by washing the cells four times with 1× PBS. Then the cells were lysed with 0.5M NaOH for 30 min and the radioactivity counted in the beta counter. […]

[2] = test system: HGF/SF induced proliferation of HUVEC; test: Endothelial cell (HUVEC) proliferation assay in the presence of exogenously-added HGF/SF; format: cell-based, human; settings: 6-12 micrograms/ml, with HGF/SF; stimulation of endothelial cell proliferation
From the text: To evaluate inhibitors of activity, compounds may be evaluated directly for anti-proliferative activities, such as the inhibition of cellular proliferation, inhibition of tumor growth, inhibition of scatter, and inhibition of gene expression, and may also be evaluated on their ability to inhibit activity when exposed to cells together with. In such instances, the scatter and/or proliferative activities induced by added will be inhibited by the attendant presence of an inhibitory compound of the invention.
Cell proliferation assays Endothelial cells (HUVECs) were seeded in 48 well plates at a density of 10,000 to 20,000 cells per well in the normal growth medium (EGM-2-Clonetics) containing 2% fetal bovine serum, FGF, VEGF, IGF, ascorbic acid, EGF, GA, heparin and hydrocortisone. The cells were grown normally in the growth medium for 24 hr at 37 degrees C. and 5% CO2. The cells were then rinsed with RPMI-1% BSA and starved for 1-2 hrs. The stock solutions of all the compounds were made at a concentration of 10 mg/ml in DMSO and diluted in RPMI-1% BSA at a final concentrations of 1 to 12 microgram/ml. The cells were then washed and treated with the compounds and incubated for another 24 hr at 37 degrees C. Then ^3H thymidine (0.5 microgram/ml in RPMI-BSA) was added to the cells and incubated at 37 degrees C. for 4 to 5 hours. The unincorporated thymidine was removed by washing the cells four times with 1× PBS. Then the cells were lysed with 0.5M NaOH for 30 min and the radioactivity counted in the beta counter.

[3] = Homo sapiens, HUVEC, 10 microg/ml

C1=C(c2ccccc2)c2ccccc2C1(c1ccccc1)c1ccccc1 [1,1,3-triphenylinedene]
Stimulation at 6-12 micrograms/ml Without HGF/SF ([1]; without HGF/SF): 50-100% stimulation | Stimulation at 6-12 micrograms/ml With [2]: 30-40% stimulation

c1ccc(-c2cc(-c3ccccc3)cc(-c3ccccc3)c2)cc1 [1,3,5-triphenylbenzene]
Stimulation at 6-12 micrograms/ml Without HGF/SF ([1]; without HGF/SF): 40-60% stimulation | Stimulation at 6-12 micrograms/ml With [2]: two fold stimulation

CS(=O)(=O)n1ccc(C=Cc2cccs2)n1 [1-(methylsulfonyl)-3-(2-(2-thienyl)vinyl)-1H-pyrazole]
Stimulation/Inhibition at 10 microg/ml (result in words) ([1]; 10 microg/ml): Not significant | activation at 5 µg/mL ([1]; Homo sapiens, HUVEC): 74%

CCc1cn(C(=O)C(C)(C)C)nc1-c1c(F)cccc1F [1-[3-(2,6-difluorophenyl)-4-ethyl-1H-pyrazol-1-yl]-2,2-dimethylpropan-1-one]
Stimulation/Inhibition at 10 microg/ml (result in words) ([1]; 10 microg/ml): not significant | activation at 5 µg/mL ([1]; Homo sapiens, HUVEC): 58%

CC(C)(C)C(=O)n1ccc(C=Cc2cccs2)n1 [2,2-dimethyl-1-(3-(2-(2-thienyl)vinyl)-1H-pyrazole-1-yl)propan-1-one]
Stimulation/Inhibition at 5 microg/ml (result in words) [1]: No effect | activation at 10 µg/mL [1, 3]: 55%

N#Cc1c(Cl)cccc1Oc1ccc(-c2ccnn2Cc2ccc(Cl)cc2)cc1 [2-chloro-6-(4-(1-(4-chlorobenzyl)-1H-pyrazol-5-yl)phenoxy)benzonitrile]
activation at 5 µg/mL ([1]; Homo sapiens, HUVEC): 60% | activation at 10 µg/mL [1, 3]: 90%

Cc1onc(-c2c(Cl)cccc2Cl)c1C(=O)NN [3-(2,6-dichlorophenyl)-5-methylisoxazole-4-carbohydrazide]
Activity at 2 microgram/ml Without HGF/SF (result in words) ([1]; 2 microgram/ml, without HGF/SF): not significant

CCc1c[nH]nc1-c1c(F)cccc1F [3-(2,6-difluorophenyl)-4-ethyl-1H-pyrazole]
Stimulation at 5 microg/ml [1]: two fold stimulation | activation at 10 µg/mL [1, 3]: 86%

C=C(C)Cc1c(C)nn(S(=O)(=O)c2ccccc2)c1O [3-methyl-4-(2-methylallyl)-1-(phenylsulfonyl)-1H-pyrazol-5-ol]
Stimulation at 5 microg/ml [1]: two fold stimulation | Stimulation/Inhibition at 10 microg/ml (result in words) ([1]; 10 microg/ml): Not significant

Cc1nn(S(=O)(=O)c2ccccc2Cl)c(C)c1-c1csc2ccc(Cl)cc12 [4(5-chlorobenzo(b)thiophen-3-yl)-1-(2-chlorophenyl)sulfonyl)-3,5dimethyl-1-H-pyrazole]
Stimulation at 5 microg/ml [1]: 1.8 fold stimulation | Stimulation/Inhibition at 10 microg/ml (result in words) ([1]; 10 microg/ml): Not significant

Cc1nn(-c2ccccc2)c(O)c1Cc1c(Cl)cccc1Cl [4-(2,6-dichlorobenzyl)-3-methyl-1-phenyl-1H-pyrazol-5-ol]
Stimulation at 5 microg/ml [1]: 2.3 fold stimulation | Stimulation at 10 microg/ml ([1]; 10 microg/ml): two fold stimulation

Cc1nn(S(=O)(=O)c2ccc(Cl)c(Cl)c2)c(C)c1Cc1c(F)cccc1Cl [4-(2-chloro-6-fluorobenzyl)-1-((3,4-dichlorophenyl)sulfonyl)-3,5-dimethyl-1H-pyrazole]
Activity at 2 microgram/ml Without HGF/SF: stimulation ([1]; 2 microgram/ml, without HGF/SF, stimulation of HUVEC proliferation): 73%

Cc1nn(S(=O)(=O)c2cc(C(F)(F)F)cc(C(F)(F)F)c2)c(C)c1Cc1c(F)cccc1Cl [4-(2-chloro-6-fluorobenzyl)-1-{[3,5-di(trifluoromethyl)phenyl]sulfonyl}-3,5-dimethyl-1H-pyrarole]
Stimulation at 5 microg/ml [1]: 3.1 fold stimulation | Stimulation at 10 microg/ml ([1]; 10 microg/ml): 2.4 fold stimulation

CNC(=O)n1nc(C)c(Cc2csc3ccc(Cl)cc23)c1C [4-[(5-chloro-1-benzothiophen-3-yl)methyl]-N,3,5-trimethyl-1H-pyrazole-1-carboxamide]
Stimulation at 5 microg/ml [1]: two fold stimulation | Stimulation at 10 microg/ml ([1]; 10 microg/ml): two fold stimulation

Cc1nn(C(=O)Nc2ccc(Cl)cc2Cl)c(C)c1Cc1csc2ccc(Cl)cc12 [4-[(5-chloro-1-benzothiophen-3-yl)methyl]-N-(2,4-dichlorophenyl)-3,5-dimethyl-1H-pyrazole-1-carboxamide]
activation at 5 µg/mL ([1]; Homo sapiens, HUVEC): 75% | activation at 10 µg/mL [1, 3]: 35%

O=C(c1ccc(Cl)cc1)n1ccc(C(c2ccccc2)c2ccccc2)n1 [(3-benzhydryl-1H-pyrazol-1-yl)(4-chlorophenyl)methanone]
Stimulation/Inhibition at 5 microg/ml (result in words) [1]: No effect | activation at 10 µg/mL [1, 3]: 25%

Cc1nn(C(=O)c2ccc(Cl)cc2)c(C)c1Sc1nccn1C [(4-chlorophenyl)(3,5-dimethyl-4-((1-methyl-1H-imidazol-2-yl)thio)-1H-pyrazol-1-yl)methanone]
activation at 5 µg/mL ([1]; Homo sapiens, HUVEC): 52% | activation at 10 µg/mL [1, 3]: 50%

Cc1nc(-c2ccc(-c3cccs3)s2)sc1-c1ccn(C(=O)c2ccc(Cl)cc2)n1 [(4-chlorophenyl)(3-(2-(5-(2-thienyl)-2-thienyl)-4-methyl-1,3-thiazol-5-yl)-1H-pyrazol-1-yl)methanone]
activation at 5 µg/mL ([1]; Homo sapiens, HUVEC): 20% | activation at 10 µg/mL [1, 3]: 33%

O=C(c1ccc(Cl)cc1)n1ccc(-c2cc(-c3ccccc3)no2)n1 [(4-chlorophenyl)(3-(3-phenylisoxazol-5-yl)-1H-pyrazol-1-yl)methanone]
activation at 5 µg/mL ([1]; Homo sapiens, HUVEC): 54% | activation at 10 µg/mL [1, 3]: 60%

O=C(c1ccc(Cl)cc1)n1ccc(-c2ccc(-c3cccs3)s2)n1 [(4-chlorophenyl)(3-(5-(2-thienyl)-2-thienyl)-1H-pyrazol-1-yl)methanone]
activation at 5 µg/mL ([1]; Homo sapiens, HUVEC): 40% | activation at 10 µg/mL [1, 3]: 40%

CSc1cc(-c2ccc(Oc3ccccc3)cc2)nn1C(=O)c1ccc(Cl)cc1 [(4-chlorophenyl)(5-(methylthio)-3-(4-phenoxyphenyl)-1H-pyrazol-1-yl)methanone]
Stimulation/Inhibition at 5 microg/ml (result in words) [1]: No effect | inhibition at 10 µg/mL ([1]; Homo sapiens, HUVEC, 10 microg/ml, inhibition of endothelial cell proliferation): 40%

Cc1nn(C(=O)Nc2cccc(Cl)c2)c(C)c1Cc1csc2ccc(Cl)cc12 [N1-(3-chlorophenyl)-4-[(5-chlorobenzo[b]thiophen-3-yl)methyl]-3,5-dimethyl-1H-pyrazole-1-carboxamide]
activation at 5 µg/mL ([1]; Homo sapiens, HUVEC): 86% | activation at 10 µg/mL [1, 3]: 40%

O=C(Nc1ccc(Cl)cc1)n1ccc(C=Cc2cccs2)n1 [N1-(4-chlorophenyl)-3-(2-(2-thienyl)vinyl)-1H-pyrazole-1-carboxamide]
Stimulation/Inhibition at 5 microg/ml (result in words) [1]: No effect | activation at 10 µg/mL [1, 3]: 55%

O=C(Nc1ccccc1)n1ccc(C=Cc2cccs2)n1 [N1-phenyl-3-(2-(2-thienyl)vinyl)-1H-pyrazole-1-carboxamide]
Stimulation/Inhibition at 10 microg/ml (result in words) ([1]; 10 microg/ml): Not significant | activation at 5 µg/mL ([1]; Homo sapiens, HUVEC): 40%

Cc1nn(C(=O)Nc2ccccc2)c(C)c1Cc1csc2ccc(Cl)cc12 [N1-phenyl-4-[(5-chlorobenzo[b]thiophen-3-yl)methyl]-3,5-dimethyl-1H-pyrazole-1-carboxamide]
Stimulation at 5 microg/ml [1]: two fold stimulation | activation at 10 µg/mL [1, 3]: 45%

CNC(=O)n1ccc(C=Cc2cccs2)n1 [N-methyl-3-(2-(2-thienyl)vinyl)-1H-pyrazole-1-carboxamide]
activation at 5 µg/mL ([1]; Homo sapiens, HUVEC): 70% | activation at 10 µg/mL [1, 3]: 42%

CCc1cn(C(=O)c2cccs2)nc1-c1c(F)cccc1F [[3-(2,6-difluorophenyl)-4-ethyl-1H-pyrazol-1-yl](2-thienyl)methanone]
Stimulation at 5 microg/ml [1]: 2.5 fold stimulation | Stimulation at 10 microg/ml ([1]; 10 microg/ml): two fold stimulation

COC(=O)c1c(C)nn(C(=O)c2ccc(Cl)cc2)c1-c1ccno1 [methyl 1-(4-chlorobenzoyl)-5-isoxazol-5-yl-3-methyl-1H-pyrazole-4-carboxylate]
Stimulation/Inhibition at 5 microg/ml (result in words) [1]: Not significant | activation at 10 µg/mL [1, 3]: 33%

Cc1nn(C(=O)c2ccc([N+](=O)[O-])cc2)c(C)c1Cc1csc2ccc(Cl)cc12 [{4-[(5-chlorobenzo[b]thiophen-3-yl)methyl]-3,5-dimethyl-1H-pyrazol-1-yl}(4-nitrophenyl)methanone]
Stimulation at 10 microg/ml ([1]; 10 microg/ml): 2.5 fold stimulation | activation at 5 µg/mL ([1]; Homo sapiens, HUVEC): 74%
